Measurements from article PMC10914731, “Homo-BacPROTAC-induced degradation of ClpC1 as a strategy against drug-resistant mycobacteria” (Nature Communications, 2024).
Converted amounts (≈) assume the structure as drawn. “And” between values parts separate entries of the source, which are not always exact repeats. Equal entries are not always repeated. Where two headings read alike, the source gives them in different places.

Tests used:
[1] = system: non-replicating cells of Mtb H37Rv; type: cell-based, Mycobacterium tuberculosis
[2] = target: ClpC1 NTD protein (M. tuberculosis) (Mycobacterium tuberculosis, UniProt P9WPC9); experiment: biochemical; type: binding; details: for Kd: SPR
ClpC1 NTD protein (M. tuberculosis), sequence (P9WPC9 1-156, looked up, natural form): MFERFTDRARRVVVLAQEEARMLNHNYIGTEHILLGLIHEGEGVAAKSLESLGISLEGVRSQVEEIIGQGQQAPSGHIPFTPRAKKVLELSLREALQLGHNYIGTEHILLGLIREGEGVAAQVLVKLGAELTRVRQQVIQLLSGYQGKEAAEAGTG

Enterobacter cloacae = experiment: MIC ESKAPES panel, Enterobacter cloacae; type: cell-based
Description: (§1) Minimum inhibitory concentration (MIC) against ESKAPES panel of Gram positive and Gram negative pathogens (Enterococcus faecium, Staphylococcus aureus, Klebsiella pneumoniae, Acinetobacter baumannii, Pseudomonas aeruginosa, Enterobacter cloacae and Salmonella typhimurium [ESKAPES panel]) were determined at the FNDR by the standard broth dilution method [CLSI, M100]. […] Mueller Hinton broth (MHB) medium was used to grow ESKAPES panel strains. The individual cultures were added as 200 μL (inoculum of 3–7 × 10^5 cfu/ml) to the respective assay plates in each well to all columns, except the media control (200 μL of medium). […] The assay plates were incubated at 37 °C, and the results were noted on the 2nd day as turbidometric readout. The clear wells indicated inhibition of growth, while the turbid wells indicated uninhibited growth.

[3] = system: M. tuberculosis H37Rv (ATCC 27294); experiment: microbe, parasite or virus in culture; type: cell-based
Msm 607 = experiment: microbe, parasite or virus in culture; type: cell-based
Enterococcus faecium = experiment: MIC ESKAPES panel, Enterococcus faecium; type: cell-based
Description: as §1

Caco-2 monolayers = experiment: in vitro; details: human, Caco-2
How it was run: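 Values are bidirectional Caco-2 apparent permeabilities, P(A−B) and P(B−A), given in 10^-6 cm s-1. The efflux ratio divides P(B−A) by P(A−B), and intrinsic permeability averages the two directions.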

[4] = target: endogenous ClpC1 in Msm #607 cells (Mycolicibacterium smegmatis, UniProt A0R574); type: cell-based, M. smegmatis
endogenous ClpC1 in Msm #607 cells, sequence (A0R574 whole entry): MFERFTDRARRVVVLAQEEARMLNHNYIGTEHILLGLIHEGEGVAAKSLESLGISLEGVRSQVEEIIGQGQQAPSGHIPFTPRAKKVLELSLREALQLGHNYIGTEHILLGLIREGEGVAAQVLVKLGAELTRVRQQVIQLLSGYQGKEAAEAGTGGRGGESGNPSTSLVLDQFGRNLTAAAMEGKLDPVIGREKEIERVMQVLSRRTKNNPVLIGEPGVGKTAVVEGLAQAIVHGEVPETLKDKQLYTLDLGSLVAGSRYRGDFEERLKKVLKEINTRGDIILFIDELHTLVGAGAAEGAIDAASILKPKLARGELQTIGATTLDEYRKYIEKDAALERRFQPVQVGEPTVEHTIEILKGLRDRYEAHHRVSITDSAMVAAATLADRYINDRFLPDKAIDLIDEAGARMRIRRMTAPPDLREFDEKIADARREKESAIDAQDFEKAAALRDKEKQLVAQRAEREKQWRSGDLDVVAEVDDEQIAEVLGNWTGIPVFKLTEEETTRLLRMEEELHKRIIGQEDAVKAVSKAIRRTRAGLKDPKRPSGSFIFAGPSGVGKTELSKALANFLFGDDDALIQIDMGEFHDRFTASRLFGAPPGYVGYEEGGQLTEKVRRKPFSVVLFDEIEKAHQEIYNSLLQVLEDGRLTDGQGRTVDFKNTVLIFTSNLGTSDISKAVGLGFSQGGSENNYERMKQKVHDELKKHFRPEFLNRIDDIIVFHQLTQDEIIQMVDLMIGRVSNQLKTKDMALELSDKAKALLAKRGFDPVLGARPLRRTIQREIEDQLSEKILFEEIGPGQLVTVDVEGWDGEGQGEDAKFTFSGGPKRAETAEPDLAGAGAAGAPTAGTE

Mtb H37Rv = experiment: Minimum bactericidal concentration (MBC), Mtb H37Rv; type: cell-based, Mycobacterium tuberculosis; details: for MBC: Mycobacterium tuberculosis, H37RV
[5] = type: in vitro ADME, Human; details: human, pH 7.4
Mycobacterium avium = experiment: microbe, parasite or virus in culture; type: cell-based
[6] = target: ClpC1-NTD substrate, M. tuberculosis ClpC1P1P2 (Mycobacterium tuberculosis, UniProt P9WPC9); experiment: biochemical; type: biochemical; details: read-out: DC50, Mean
ClpC1-NTD substrate, M. tuberculosis ClpC1P1P2, sequence (P9WPC5 whole entry): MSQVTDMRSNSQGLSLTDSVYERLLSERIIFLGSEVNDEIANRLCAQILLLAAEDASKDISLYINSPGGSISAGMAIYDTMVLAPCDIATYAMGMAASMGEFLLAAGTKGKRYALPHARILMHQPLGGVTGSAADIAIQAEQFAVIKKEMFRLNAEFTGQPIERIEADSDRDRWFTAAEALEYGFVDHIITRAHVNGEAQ
ClpC1-NTD substrate, M. tuberculosis ClpC1P1P2, sequence (P9WPC9 whole entry): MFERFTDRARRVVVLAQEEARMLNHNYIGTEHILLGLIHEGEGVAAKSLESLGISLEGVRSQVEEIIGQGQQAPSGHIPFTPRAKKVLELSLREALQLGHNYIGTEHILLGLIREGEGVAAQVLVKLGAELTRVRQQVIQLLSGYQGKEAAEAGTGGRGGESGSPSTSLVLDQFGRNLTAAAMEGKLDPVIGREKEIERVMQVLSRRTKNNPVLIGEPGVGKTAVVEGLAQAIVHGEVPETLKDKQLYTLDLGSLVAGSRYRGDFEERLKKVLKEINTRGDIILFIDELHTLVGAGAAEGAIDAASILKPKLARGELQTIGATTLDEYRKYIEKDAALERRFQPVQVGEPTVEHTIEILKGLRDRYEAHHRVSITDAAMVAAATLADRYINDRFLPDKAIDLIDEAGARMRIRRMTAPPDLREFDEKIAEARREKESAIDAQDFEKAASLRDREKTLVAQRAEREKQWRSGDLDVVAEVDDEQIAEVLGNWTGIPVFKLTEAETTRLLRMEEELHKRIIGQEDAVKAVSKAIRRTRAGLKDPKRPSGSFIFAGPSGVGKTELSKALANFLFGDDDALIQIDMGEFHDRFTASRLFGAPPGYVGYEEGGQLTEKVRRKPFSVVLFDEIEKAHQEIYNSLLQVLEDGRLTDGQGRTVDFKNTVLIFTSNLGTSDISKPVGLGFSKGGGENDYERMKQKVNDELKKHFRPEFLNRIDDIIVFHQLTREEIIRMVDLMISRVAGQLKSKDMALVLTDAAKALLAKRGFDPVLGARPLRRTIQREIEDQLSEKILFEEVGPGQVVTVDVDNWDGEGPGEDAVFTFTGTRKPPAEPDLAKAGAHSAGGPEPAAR
ClpC1-NTD substrate, M. tuberculosis ClpC1P1P2, sequence (P9WPC3 whole entry, further chain): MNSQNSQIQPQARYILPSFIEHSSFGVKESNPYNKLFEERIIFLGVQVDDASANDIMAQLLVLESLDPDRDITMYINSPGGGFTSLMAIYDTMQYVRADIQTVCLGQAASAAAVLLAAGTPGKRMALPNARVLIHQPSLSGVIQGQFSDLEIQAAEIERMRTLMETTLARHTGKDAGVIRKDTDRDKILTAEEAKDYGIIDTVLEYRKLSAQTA

Which “inhibitory activity on non-growing Mtb H37Rv” value [1] does the source give for `COC(c1ccccc1)C1NC(=O)C(C)NC(=O)C(CC(C)CO)N(C)C(=O)C(Cc2cn(C)c3ccccc23)NC(=O)C(Cc2cn(CCCCCn3cc(CC4NC(=O)C(CC(C)C)N(C)C(=O)C(C(C)C)NC(=O)C(C(OC)c5ccccc5)NC(=O)C(C)NC(=O)C(CC(C)CO)N(C)C(=O)C(Cc5cn(C)c6ccccc56)NC4=O)nn3)nn2)NC(=O)C(CC(C)C)N(C)C(=O)C(C(C)C)NC1=O` (stereo not shown) [Compound 12] here?
Its value is “lost their inhibitory activity”.

And the Kd ([2]; individual measurements (source data), listed as 12 (UdSBI-4377), read-out: KD ClpC1-NTD)?
Its Kd is 0.169 nM and 0.284 nM and 0.283 nM and 0.407 nM and 0.412 nM and 0.327 nM and 0.181 nM and 0.203 nM and 0.279 nM.

What about the Kd ([2]; read-out: ClpC1-NTD KD Mean ± SD) of the same compound?
Its Kd is 0.28 ± 0.08 nM.

What about the “improvement of SPR KD to ClpC1-NTD, dimer versus monomer (factor)” value ([2]; monomeric 10 to dimeric 12 / Homo-BacPROTACs versus monomeric compounds) of the same compound?
The value was 10.

What about the MIC (Enterobacter cloacae; Enterobacter cloacae, Gram negative, n = 3 well replicates) of the same compound?
Its MIC is greater than 50 µM.

And the MIC (Enterobacter cloacae; Enterobacter cloacae, Gram-Negative Bacteria, replicates 1-3)?
The MIC was greater than 99 µg/mL.

What about the MIC (Enterobacter cloacae; Gram-Negative Bacteria, replicates 1-3, listed as 12 (UdSBI-4377)) of the same compound?
Its MIC is greater than 50 µM.

And the MIC ([3]; M. tuberculosis H37Rv 27294, single well replicates, read-out: MIC)?
The MIC was 0.098 µM (≈ 0.194 µg/mL).

What about the MIC ([3]; Mycobacterium tuberculosis, M. tuberculosis H37Rv 27294, single well replicates, read-out: MIC) of the same compound?
Its MIC is 0.098 µM (≈ 0.194 µg/mL).

And the MIC ([3]; Mycobacterium tuberculosis, M. tuberculosis H37Rv strain, read-out: MIC Mtb H37Rv Mean ± SD)?
The MIC was 0.1 µM (≈ 0.198 µg/mL).

What about the MIC ([3]; Mycobacterium tuberculosis, Mtb H37Rv (Supplementary Table 2), read-out: MIC Mtb) of the same compound?
Its MIC is 0.1 µM (≈ 0.198 µg/mL).

What about the MIC ([3]; Mycobacterium tuberculosis, Mtb H37Rv, mean ± SD, n = 3 well replicates, read-out: MIC) of the same compound?
Its MIC is 0.1 µM (≈ 0.198 µg/mL).

And the MIC ([3]; Mycobacterium tuberculosis, Set 1, read-out: MIC (Mtb H37Rv) Set 1)?
The MIC was 0.05 µM and 0.095 µg/mL.

And the MIC ([3]; Mycobacterium tuberculosis, Set 2, read-out: MIC (Mtb H37Rv) Set 2)?
Its MIC is 0.05 µM and 0.095 µg/mL.

What about the MIC ([3]; Mycobacterium tuberculosis, Set 3, done at a different day than Set 1 and Set 2, read-out: MIC (Mtb H37Rv) Set 3) of the same compound?
The MIC was 0.05 µM and 0.095 µg/mL.

What about the MIC ([3]; Mycobacterium tuberculosis, individual example (Supplementary Table 11), read-out: MIC Mtb H37Rv) of the same compound?
The MIC was 0.05 µM and 0.1 µg/mL.

What about the MIC ([3]; Mycobacterium tuberculosis, individual measurements (source data), read-out: Mtb MIC) of the same compound?
Its MIC is 0.097 µM (≈ 0.192 µg/mL).

What about the MIC ([3]; Mycobacterium tuberculosis, mean of 3 experiments +/- SD, unit taken from the sets above in the same table, read-out: MIC data (Mtb H37Rv) (+/- SD)) of the same compound?
Its MIC is 0.05 µM and 0.1 µg/mL.

What about the MIC ([3]; Mycobacterium tuberculosis, single determinations, read-out: Mtb MIC) of the same compound?
The MIC was 0.097 µM (≈ 0.192 µg/mL).

What about the MIC ([3]; Mycobacterium tuberculosis, value of the earlier manuscript version quoted in the peer review file, read-out: inhibition of the Mtb growth (MIC)) of the same compound?
The MIC was 0.097 µM (≈ 0.192 µg/mL).

And the MIC ([3]; individual measurements (source data), read-out: Mtb MIC)?
The MIC was 0.097 µM (≈ 0.192 µg/mL).

What about the MIC (Msm 607; Mycolicibacterium smegmatis, 607, read-out: MIC Msm 607) of the same compound?
The MIC was 0.9 ± 0.3 µM (≈ 1.78 µg/mL).

What about the MIC (Msm 607; Mycolicibacterium smegmatis, 607, read-out: MIC Msm #607, individual example (Supplementary Table 11)) of the same compound?
The MIC was 0.8 µM and 1.5 µg/mL.

What about the MIC (Msm 607; Mycolicibacterium smegmatis, 607, read-out: Msm 607 MIC, single determinations) of the same compound?
The MIC was 1.56 µM (≈ 3.09 µg/mL).

And the MIC (Msm 607; Mycolicibacterium smegmatis, ATCC607, Set-1, read-out: MIC (Msm ATCC607) Set-1)?
Its MIC is 0.78 µM and 1.54 µg/mL.

What about the MIC (Msm 607; Mycolicibacterium smegmatis, ATCC607, Set-2, read-out: MIC (Msm ATCC607) Set-2) of the same compound?
The MIC was 1.54 µM and 3.06 µg/mL.

What about the MIC (Msm 607; Mycolicibacterium smegmatis, ATCC607, Set-3, done at a different day than Set 1 and Set 2, read-out: MIC (Msm ATCC607) Set-3) of the same compound?
Its MIC is 0.78 µM and 1.54 µg/mL.

What about the MIC (Msm 607; Mycolicibacterium smegmatis, ATCC607, mean of 3 experiments ± SD, read-out: MIC including standard deviations (Msm ATCC607)) of the same compound?
Its MIC is 1.03 µM and 2.04 µg/mL.

What about the “Msm 607 MIC” value (Msm 607; single determinations, listed as 12 (UdSBI-4377)) of the same compound?
The value was 0.780 µM.

What about the MIC (Enterococcus faecium; Enterococcus faecium, Gram positive, n = 3 well replicates) of the same compound?
Its MIC is greater than 50 µM.

And the MIC (Enterococcus faecium; Enterococcus faecium, Gram-Positive Bacteria, replicates 1-3)?
Its MIC is greater than 99 µg/mL.

And the MIC (Enterococcus faecium; Gram-Positive Bacteria, replicates 1-3, listed as 12 (UdSBI-4377))?
The MIC was greater than 50 µM.

What about the “CACO permeability PEAB” value (Caco-2 monolayers) of the same compound?
The value was 0.73 ×10⁻⁶ cm/s.

What about the “CACO permeability PEBA” value (Caco-2 monolayers) of the same compound?
Its value is 0.25 ×10⁻⁶ cm/s.

And the “Caco-2 Efflux ratio” value (Caco-2 monolayers)?
The value was 0.3.

And the “Caco-2 Int. Perm” value (Caco-2 monolayers)?
The value was 0.5.

And the “Caco-2 permeability P (A-B)” value (Caco-2 monolayers)?
The value was 0.7.

What about the “Caco-2 permeability P (B-A)” value (Caco-2 monolayers) of the same compound?
The value was 0.2.

What about the DC50 ([4]; read-out: DC50, Mean) of the same compound?
The DC50 was 170 nM.

And the DC50 ([4]; read-out: average DC50, endogenous ClpC1 degradation)?
The DC50 was 170 ± 100 nM.

And the “colony growth after replating (MBC assay)” value (Mtb H37Rv)?
The value was “did not form any colonies at concentrations at or above the MIC value”.

What about the MBC (Mtb H37Rv; read-out: MBC (from Set 3) Mtb H37Rv) of the same compound?
Its MBC is 0.1 µM and 0.2 µg/mL.

And the MBC (Mtb H37Rv; read-out: MBC Mtb H37Rv)?
Its MBC is 0.1 µM and 0.2 µg/mL.

What about the “Hepatocyte Human” value [5] of the same compound?
Its value is 12 %Qh.

What about the MIC (Mycobacterium avium; Experiment 1, listed as 12 (UdSBI-4377), read-out: MIC Mycobacterium avium) of the same compound?
Its MIC is greater than 50 µM.

And the “MIC (µg/ml) Mycobacterium avium” value (Mycobacterium avium; Experiment 2, three replicate columns)?
Its value is greater than 99.02 µg/mL.

And the MIC (Mycobacterium avium; Experiment 2, three replicate columns, read-out: MIC (µM) Mycobacterium avium)?
The MIC was greater than 50 µM.

And the MIC (Mycobacterium avium; Mycobacterium avium, Experiment 1, read-out: MIC Mycobacterium avium)?
The MIC was greater than 99 µg/mL.

And the MIC (Mycobacterium avium; Mycobacterium avium, Experiment 2, three replicate columns, read-out: MIC (µM) Mycobacterium avium)?
Its MIC is greater than 50 µM.

What about the MIC (Mycobacterium avium; Mycobacterium avium, Experiment 2, three replicate columns, read-out: MIC (µg/ml) Mycobacterium avium) of the same compound?
Its MIC is greater than 99 µg/mL.

What about the MIC (Mycobacterium avium; Mycobacterium avium, mean ± SD, read-out: MIC Mycobacterium avium) of the same compound?
Its MIC is greater than 50 µM.

What about the DC50 [6] of the same compound?
Its DC50 is 7100 nM.
